Six compounds from ChEMBL document CHEMBL1770132, “The discovery of high affinity agonists of GPR109a with reduced serum shift and improved ADME properties” (Bioorg Med Chem Lett, 2011) can be followed below.

What all share (type): ADME, organism-based
The nature of data set [1]: Plasma clearance in Sprague-Dawley rat.
Data set [2] is described as follows: Half life in plasma of C57BL/6 mouse.
Data set [3] can be described thus: Bioavailability in Sprague-Dawley rat at 1 mg/kg, iv and 2 mg/kg, po. To be noted: in vivo.
Data set [4] in a line: Half life in Sprague-Dawley rat. To be noted: in vivo.
The nature of data set [5]: Bioavailability in C57BL/6 mouse at 1 mg/kg, iv and 2 mg/kg, po. To be noted: in vivo.
A short description of data set [6]: Plasma clearance in C57BL/6 mouse.
Data set [7] in a line: Half life in plasma of C57BL/6 mouse at 1 mg/kg, iv and 2 mg/kg, po.

By clearance is commonly meant the rate of elimination divided by the concentration. What is called half-life is how long it takes for the measured level to halve. Read a low half-life as rapid decline. For orientation: bioavailability means dose-corrected exposure relative to a reference, in per cent. As to `O=C(CCc1nc(-c2ccc(O)cn2)no1)NC1=C(C(=O)O)CCCC1`, the clearance in data set [1] amounted to 1 mL/min/kg. In addition, the half-life in data set [2] is 1.4 h; in data set [4] it was 2.2 h. The compound also came in with a bioavailability in data set [3] of 8.1%.
In the case of `C[C@@H]1CCC(C(=O)O)=C(NC(=O)[C@@H](N)Cc2nc(-c3ccc(F)cn3)no2)C1`, the results for the clearance in data set [1] and in data set [6] were 0.7 mL/min/kg and 1.7 mL/min/kg, respectively. In addition, the figures for the bioavailability in data set [5] and in data set [3] were 100% and 81%, respectively. In addition, the half-life in data set [2] is 5.6 h; in data set [4], 5.5 h.
`O=C(CCc1ccc(-c2ccc(O)cc2)cc1)Nc1ccccc1C(=O)O` gave a half-life in data set [7] of 2.4 h.
Consider `N[C@@H](Cc1nc(-c2ccc(O)cn2)no1)C(=O)NC1=C(C(=O)O)CCCC1`, for which the clearance in data set [1] is 0.7 mL/min/kg; in data set [6], 2.5 mL/min/kg. Further, the bioavailability amounted to 9% in data set [5] and 2% in data set [3]. Further, the half-life in data set [2] was 4.5 h; in data set [4] it was 2.3 h.
As to `C[C@@H]1CCC(C(=O)O)=C(NC(=O)[C@@H](N)Cc2nc(-c3ccc(O)cn3)no2)C1`, the bioavailability in data set [5] came out at 7.5%. In addition, in data set [2], the half-life is 2.64 h. This compound returned a clearance in data set [6] of 9.22 mL/min/kg.
The matching figures for `C[C@@H]1CCC(C(=O)O)=C(NC(=O)CCc2nc(-c3ccc(F)cn3)no2)C1`: 54%, 4.7 h and 3.3 mL/min/kg.
